Laboratory results published in US20140287419A1, “Compositions Having Dicamba Decarboxylase Activity and Methods of Use” (priority 2013, published 2014).
“Also recorded” adds a separate entry of the source.

Assays:
[1] = test system: Arabidopsis ecotype Columbia (Col-O); experiment: Arabidopsis root growth inhibition assay; conditions: 6 days
Description: Phytotoxicity of other major dicamba decarboxylated products was evaluated using Arabidopsis root growth inhibition assay. 4-chloro-3-methoxy phenol was purchased from Biogene Organics, Inc. (catalog number U06-642-79). 2,5-dichloro phenol was purchased from Sigma-Aldrich (catalog number D70007). Briefly, seeds of Arabidopsis ecotype Columbia (Col-O) were surface sterilized with 70% (v/v) ethanol for 5 minutes and 10% (v/v) bleach for 15 minutes. After being washed three times with distilled water, the seeds were germinated on 1× Murashige and Skoog (MS) medium with a pH of 5.7, 3% (w/v) sucrose, and 0.8% (w/v) agar. After incubation for 3.5 days, the seedlings were transferred to 1× MS medium containing B5 vitamin, 3% (w/v) sucrose, 1.2% (w/v) agar, and filter sterilized compounds was added to the media at 60° C. The concentrations of compounds including dicamba were 0 μM, 1.0 μM, and 10 μM. The seedlings were placed vertically, and the temperature maintained at 23° C. to allow root growth along the surface of the agar, with a photoperiod of 16 h of light and 8 h of dark.
After 6 days on media, root growth was evaluated. In wild type Arabidopsis, root growth inhibition is expected from auxin herbicide treatment.

[2] = test system: Soybean seeds of a Pioneer elite germplasm; experiment: Soybean germination phytotoxicity test; conditions: for soybean seed germination and growth: 16 days

| Compound | Arabidopsis root growth ([1]; 1.0 uM in MS medium) | Arabidopsis root growth ([1]; 10 uM in MS medium) | soybean seed germination and growth ([2]; 1 μM in germination media) | soybean seed germination and growth ([2]; 10 μM in germination media) | soybean seed germination and growth ([2]; 100 μM in germination media) | soybean germination ([2]; FIG. 2 legend, no concentration given) |
| --- | --- | --- | --- | --- | --- | --- |
| Oc1cc(Cl)ccc1Cl [2,5-dichloro phenol] | not affected; also recorded: did not have any effect on the growth of Arabidopsis roots | not affected; also recorded: did not have any effect on the growth of Arabidopsis roots | – | – | – | – |
| COc1cc(Cl)ccc1Cl [2,5-DCA, 2,5-dichloro anisole] | – | – | seed germination and growth were normal | seed germination and growth were normal | did not have any obvious impact on soybean germination and growth | not affected |
